Experimental data taken from the NIST ThermoML archive (doi:10.1016/j.fluid.2006.10.012).
± gives the expanded uncertainty stated by the source.

Assay: osmotic coefficient (dimensionless); mn = molality of the nth substance listed, in mol/kg
Details: Liquid, isopiestic method

NCC(=O)O [2-aminoacetic acid] + O
Details | osmotic coefficient
288.15 K, m1 = 0.2174 | 0.9554 ± 0.0022
288.15 K, m1 = 0.2178 | 0.9554 ± 0.0022
288.15 K, m1 = 0.3075 | 0.946 ± 0.0027
288.15 K, m1 = 0.3078 | 0.946 ± 0.0027
288.15 K, m1 = 0.5175 | 0.9341 ± 0.0033
288.15 K, m1 = 0.5178 | 0.934 ± 0.0033
288.15 K, m1 = 0.6241 | 0.9302 ± 0.0035
288.15 K, m1 = 0.6251 | 0.9302 ± 0.0035
288.15 K, m1 = 0.8647 | 0.9219 ± 0.0039
288.15 K, m1 = 0.8654 | 0.9219 ± 0.0039
288.15 K, m1 = 1.193 | 0.9166 ± 0.0042
288.15 K, m1 = 1.194 | 0.9166 ± 0.0042
293.15 K, m1 = 0.2074 | 0.9705 ± 0.0015
293.15 K, m1 = 0.2076 | 0.9705 ± 0.0015
293.15 K, m1 = 0.3572 | 0.9556 ± 0.0022
293.15 K, m1 = 0.3577 | 0.9555 ± 0.0022
293.15 K, m1 = 0.5277 | 0.9428 ± 0.0029
293.15 K, m1 = 0.5284 | 0.9428 ± 0.0029
293.15 K, m1 = 0.8498 | 0.9282 ± 0.0036
293.15 K, m1 = 0.8508 | 0.9282 ± 0.0036
293.15 K, m1 = 1.027 | 0.924 ± 0.0038
293.15 K, m1 = 1.028 | 0.924 ± 0.0038
293.15 K, m1 = 1.298 | 0.9202 ± 0.004
293.15 K, m1 = 1.299 | 0.9202 ± 0.004
298.15 K, m1 = 0.2274 | 0.9815 ± 0.0009
298.15 K, m1 = 0.2276 | 0.981 ± 0.001
298.15 K, m1 = 0.3213 | 0.9767 ± 0.0012
298.15 K, m1 = 0.3214 | 0.9764 ± 0.0012
298.15 K, m1 = 0.5417 | 0.9583 ± 0.0021
298.15 K, m1 = 0.7869 | 0.9461 ± 0.0027
298.15 K, m1 = 0.7878 | 0.945 ± 0.0028
298.15 K, m1 = 0.8048 | 0.9442 ± 0.0028
298.15 K, m1 = 0.8059 | 0.9432 ± 0.0028
298.15 K, m1 = 1.139 | 0.9297 ± 0.0035
298.15 K, m1 = 1.14 | 0.9295 ± 0.0035
303.15 K, m1 = 0.203 | 0.9873 ± 0.0006
303.15 K, m1 = 0.2037 | 0.9872 ± 0.0006
303.15 K, m1 = 0.3379 | 0.9781 ± 0.0011
303.15 K, m1 = 0.3388 | 0.9781 ± 0.0011
303.15 K, m1 = 0.5346 | 0.966 ± 0.0017
303.15 K, m1 = 0.535 | 0.9659 ± 0.0017
303.15 K, m1 = 0.7489 | 0.9539 ± 0.0023
303.15 K, m1 = 0.7501 | 0.9538 ± 0.0023
303.15 K, m1 = 0.854 | 0.9483 ± 0.0026
303.15 K, m1 = 0.8547 | 0.9483 ± 0.0026
303.15 K, m1 = 1.044 | 0.9384 ± 0.0031
303.15 K, m1 = 1.045 | 0.9384 ± 0.0031

CCC(N)C(=O)O (stereo not drawn) [(.+-.)-α-aminobutyric acid] + O
Details | osmotic coefficient
288.15 K, m1 = 0.2191 | 0.9642 ± 0.0018
288.15 K, m1 = 0.2194 | 0.9642 ± 0.0018
288.15 K, m1 = 0.3053 | 0.9569 ± 0.0022
288.15 K, m1 = 0.3055 | 0.9569 ± 0.0022
288.15 K, m1 = 0.5076 | 0.9529 ± 0.0024
288.15 K, m1 = 0.5082 | 0.953 ± 0.0024
288.15 K, m1 = 0.595 | 0.9567 ± 0.0022
288.15 K, m1 = 0.596 | 0.9567 ± 0.0022
288.15 K, m1 = 0.7815 | 0.9748 ± 0.0013
288.15 K, m1 = 0.7821 | 0.9749 ± 0.0013
288.15 K, m1 = 1.057 | 1.025 ± 0.0012
288.15 K, m1 = 1.059 | 1.025 ± 0.0013
293.15 K, m1 = 0.2031 | 0.9894 ± 0.0005
293.15 K, m1 = 0.2034 | 0.9894 ± 0.0005
293.15 K, m1 = 0.3484 | 0.9811 ± 0.0009
293.15 K, m1 = 0.3492 | 0.9811 ± 0.0009
293.15 K, m1 = 0.508 | 0.9744 ± 0.0013
293.15 K, m1 = 0.5086 | 0.9744 ± 0.0013
293.15 K, m1 = 0.8066 | 0.9819 ± 0.0009
293.15 K, m1 = 0.8078 | 0.982 ± 0.0009
293.15 K, m1 = 0.9443 | 1.0001 ± 0.0001
293.15 K, m1 = 0.9453 | 1.0003 ± 0.0001
293.15 K, m1 = 1.139 | 1.048 ± 0.0024
293.15 K, m1 = 1.14 | 1.049 ± 0.0024
298.15 K, m1 = 0.2217 | 1.0067 ± 0.0003
298.15 K, m1 = 0.2219 | 1.0058 ± 0.0003
298.15 K, m1 = 0.3106 | 1.0103 ± 0.0005
298.15 K, m1 = 0.3109 | 1.0093 ± 0.0005
298.15 K, m1 = 0.5105 | 1.0168 ± 0.0008
298.15 K, m1 = 0.5108 | 1.0163 ± 0.0008
298.15 K, m1 = 0.5636 | 1.0164 ± 0.0008
298.15 K, m1 = 0.5637 | 1.0162 ± 0.0008
298.15 K, m1 = 0.7428 | 1.023 ± 0.0012
298.15 K, m1 = 0.7434 | 1.023 ± 0.0011
298.15 K, m1 = 1.022 | 1.036 ± 0.0018
298.15 K, m1 = 1.023 | 1.036 ± 0.0018
303.15 K, m1 = 0.2054 | 1.0072 ± 0.0004
303.15 K, m1 = 0.206 | 1.0073 ± 0.0004
303.15 K, m1 = 0.3334 | 1.0133 ± 0.0007
303.15 K, m1 = 0.3335 | 1.0133 ± 0.0007
303.15 K, m1 = 0.5083 | 1.0187 ± 0.0009
303.15 K, m1 = 0.5087 | 1.0187 ± 0.0009
303.15 K, m1 = 0.7146 | 1.025 ± 0.0012
303.15 K, m1 = 0.7157 | 1.025 ± 0.0012
303.15 K, m1 = 0.8091 | 1.029 ± 0.0015
303.15 K, m1 = 0.8092 | 1.029 ± 0.0015
303.15 K, m1 = 1.03 | 1.046 ± 0.0023
303.15 K, m1 = 1.031 | 1.046 ± 0.0023

CC(N)C(=O)O (stereo not drawn) [DL-2-aminopropanoic acid] + O
Details | osmotic coefficient
288.15 K, m1 = 0.2159 | 0.9497 ± 0.0026
288.15 K, m1 = 0.2163 | 0.9496 ± 0.0026
288.15 K, m1 = 0.3062 | 0.944 ± 0.0027
288.15 K, m1 = 0.3066 | 0.944 ± 0.0027
288.15 K, m1 = 0.5085 | 0.9513 ± 0.0026
288.15 K, m1 = 0.5093 | 0.9514 ± 0.0026
288.15 K, m1 = 0.6031 | 0.9603 ± 0.0024
288.15 K, m1 = 0.6037 | 0.9603 ± 0.0024
288.15 K, m1 = 0.8076 | 0.9837 ± 0.0021
288.15 K, m1 = 0.8082 | 0.9838 ± 0.0021
288.15 K, m1 = 1.098 | 1.01
293.15 K, m1 = 0.2061 | 0.9725 ± 0.0022
293.15 K, m1 = 0.2068 | 0.9724 ± 0.0022
293.15 K, m1 = 0.3536 | 0.9656 ± 0.0023
293.15 K, m1 = 0.354 | 0.9656 ± 0.0023
293.15 K, m1 = 0.5134 | 0.9677 ± 0.0022
293.15 K, m1 = 0.5145 | 0.9677 ± 0.0022
293.15 K, m1 = 0.8192 | 0.9905 ± 0.002
293.15 K, m1 = 0.8199 | 0.9905 ± 0.002
293.15 K, m1 = 0.9719 | 1.007 ± 0.002
293.15 K, m1 = 0.9725 | 1.007 ± 0.002
293.15 K, m1 = 1.185 | 1.029 ± 0.0023
293.15 K, m1 = 1.186 | 1.029 ± 0.0023
298.15 K, m1 = 0.2238 | 0.9972 ± 0.002
298.15 K, m1 = 0.2243 | 0.9954 ± 0.002
298.15 K, m1 = 0.3134 | 0.9976 ± 0.002
298.15 K, m1 = 0.3135 | 0.9972 ± 0.002
298.15 K, m1 = 0.52 | 0.9983 ± 0.002
298.15 K, m1 = 0.5203 | 0.9977 ± 0.002
298.15 K, m1 = 0.5759 | 0.9986 ± 0.002
298.15 K, m1 = 0.5762 | 0.9982 ± 0.002
298.15 K, m1 = 0.7604 | 0.9998 ± 0.002
298.15 K, m1 = 0.7609 | 0.9991 ± 0.002
298.15 K, m1 = 1.056 | 1
303.15 K, m1 = 0.207 | 1.004 ± 0.002
303.15 K, m1 = 0.2076 | 1.004 ± 0.002
303.15 K, m1 = 0.3362 | 1.004 ± 0.002
303.15 K, m1 = 0.3364 | 1.004 ± 0.002
303.15 K, m1 = 0.5119 | 1.004 ± 0.002
303.15 K, m1 = 0.5129 | 1.004 ± 0.002
303.15 K, m1 = 0.7159 | 1.006 ± 0.002
303.15 K, m1 = 0.7166 | 1.006 ± 0.002
303.15 K, m1 = 0.8218 | 1.01 ± 0.002
303.15 K, m1 = 0.8221 | 1.01 ± 0.002
303.15 K, m1 = 1.038 | 1.02
